Experimental data published in patent publication US7109175B1, “Specific steady-state R-type CA2+ channel blockers and use thereof” (Universite de Sherbrooke, priority 2000, dated 2006).
“Also recorded” adds a separate entry of the source.

Assays:
[1] = tested on: TTX-sensitive fast Na^+ current; test: Whole-cell voltage clamp, TTX-sensitive fast Na+ current in heart cells; type: cell-based, chick
Procedure: Single cells of different types in culture were prepared from biopsies of human, chick and rabbit. Known and accepted methods for the isolation of fast Na^+ current, T, L and R-type Ca^2+ channels as well as delayed outward K^+ current were used (Bkaily 1994, supra).
The compounds to be tested are added to the appropriate extracellular solution after recording a stable ionic current or normal steady-state level of […]. The effect of different concentrations of compounds are tested on the different type of current and [Ca]i of the different cell types. The effect of each concentration of the compounds in function of the time of exposure are then determined. Once the steady-state effect is reached, the second concentration is added, etc.
In one series of experiments (n=5), the effect of different concentrations of MV8608 (10^−11M to 10^−7M) on the TTX-sensitive fast Na^+ current were tested using the whole-cell voltage clamp technique and experimental conditions reported elsewhere (Bkaily et al., 1988, supra; 1993, supra).
In a series of experiments (n=5), we tested the effect of another MV compound MV8612 on the TTX-sensitive fast Na^+ current (INa) of embryonic chick heart cells using the whole-cell voltage clamp technique described above.

R-type Ca^2+ channel = test: Fura-2 [Ca]i, embryonic chick heart cells; type: cell-based; settings: 10^−9M, sustained depolarization (KCl 30 mM), PAF 10^−9M, ET-1 10^−9M
From the text: This sustained increase of Ca^2+ induced by depolarization of the cell membrane or hormones such as PAF, ET-1 and bradykinin is due to the increase of Ca^2+ influx through the R-type Ca^2+ channels at the sarcolemmal membrane and/or the nuclear membrane (Bkaily G., 1994, supra; 1996, supra; 1997a–d, supra). Using Ca^2+ fluorescence probes Fura-2 or Fluo-3 and 2 and three-dimension Ca^2+ imaging techniques (Bkaily G., 1994, supra; 1996, supra; 1997a–d, supra), the effect of hormones and drugs could be easily tested. These two methods are used with single cells of different types as described above.
In another series of experiments we tested the effect of MV8608 (10^−9M) on R-type Ca^2+ channels stimulation-induced sustained increase of total intracellular Ca^2+ by sustained depolarization (FIGS. 15 to 19), by PAF (10^−9M) (FIGS. 16 to 19 and 21 to 22), by ET-1 (10^−9M) (FIGS. 16 and 19) and bradykinin (BK, 10^−6M) (FIGS. 20 and 21), in embryonic chick heart cells (FIGS. 15, 16, 19 and 20), 19-week-old human fetal heart cells (FIGS. 15, 17, 18 and 20), rabbit aortic vascular smooth muscle (VSM) cells (FIGS. 20 and 21), human aortic VSM cell-line (FIG. 23) and freshly isolated (FIG. 22) as well as in freshly isolated aortic endothelial cells (FIG. 22). […]

rat paw oedema = test: Rat paw oedema; type: in vivo; settings: for des-Arg^9-bradykinin-induced paw oedema: 10 and 100 nmol/paw co-injected, rats treated with LPS
Procedure: (§1) In this experiment (N=5 to 6 animals per group), the anti-oedemagenic action of compounds MV 8608 and MV 8612 against bradykinin and several mediators which are reported to be involved in the inflammatory processes, was evaluated. The procedures used to perform these experiments have been reported elsewhere (Neves et al., 1993, Eur. J. Pharmacol. 243:213–219; Campos et al., 1995, Br. J. Pharmacol. 114:1005–1013; Campos et al., 1996, Br. J. Pharmacol. 117:793–798; Eur. J. Pharmacol. 316:227–286). […] As reported previously, in rats treated […] prior to a systemic injection of LPS, both B1 and B2 kinin selective agonists caused marked oedema formation (FIGS. 37C and D (Campos et al., 1996, supra)).

mouse paw oedema = test: Mouse paw oedema; type: in vivo, mice
Procedure: as §1
When tested in mice, MV 8612 (40 to 160 nmol/paw) inhibited bradykinin and carrageenan-induced paw oedema in mice in a dose-dependent manner (FIGS. 46A and B).

[2] = 100 nmol/paw, rats treated 30 days prior
[3] = 40 to 160 nmol/paw co-injection

C[C@]12CC[C@H](O)CC1=CC[C@@H]1[C@@H]2CC[C@]2(C)[C@H]3[C@@H]4OC[C@H]3O[C@@H](O)[C@]12O4 [MV8608, (15R, 16R, 20S)-14, 16:15,20:16,21-triepoxi-15,16-seco 14β, 17α-pregn-5-ene-3β, 15-diol]
effect on TTX-sensitive fast Na+ current ([1]; 10^−11M to 10^−7M, single heart cell, n=5): no effect; also recorded: absence of the effect
sustained increase of [Ca]i (R-type Ca^2+ channel): blockade
PAF-induced paw oedema (rat paw oedema; 100 nmol/paw): consistently inhibited
PGE2-induced paw oedema (rat paw oedema; 100 nmol/paw): partially inhibited
substance P-induced paw oedema (rat paw oedema; 100 nmol/paw): unaffected
bradykinin-induced paw oedema (rat paw oedema; [2]): significantly inhibited
des-Arg^9-BK-induced paw oedema (rat paw oedema; [2]): significantly inhibited
carrageenan-induced paw oedema (rat paw oedema; 10 and 100 nmol/paw): significantly prevented
dextran-induced paw oedema (rat paw oedema; 10 and 100 nmol/paw): significantly prevented
histamine-induced paw oedema (rat paw oedema; 10 and 100 nmol/paw): significantly prevented
potentiation of paw oedema by low dose des-Arg^9-BK plus PAF (rat paw oedema; 10 and 100 nmol/paw): prevented the potentiation
potentiation of paw oedema by low dose des-Arg^9-BK plus PGE2 (rat paw oedema; 10 and 100 nmol/paw): prevented the potentiation
serotonin-induced paw oedema (rat paw oedema; 10 and 100 nmol/paw): significantly prevented
des-Arg^9-bradykinin-induced paw oedema (rat paw oedema): dose-related inhibition
ovalbumin-induced paw oedema (rat paw oedema; 10 and 100 nmol/paw, actively sensitised animals): inhibited significantly
bradykinin-induced hindpaw oedema (rat paw oedema; 10 and 100 nmol/paw, animals treated with LPS): no significant effect
histamine-induced paw oedema (mouse paw oedema; 7.5 and 15, i.p.): dose-related inhibition
serotonin-induced paw oedema (mouse paw oedema; 7.5 and 15, i.p.): dose-related inhibition
bradykinin-induced paw oedema (mouse paw oedema; 7.5 and 15, i.p., 30 min prior): unaffected

COC1CC(OC2C(C)OC(O[C@H]3CC[C@@]4(C)C(=CC[C@@H]5[C@@H]4CC[C@]4(C)[C@H]6[C@@H]7OC[C@H]6O[C@@H](O)[C@]54O7)C3)CC2OC)OC(C)C1OC1CC(OC)C(OC2CC(OC)C(OC3OC(C)C(OC(C)=O)C(OC)C3OC(C)=O)C(C)O2)C(C)O1 (stereo partly shown) [MV8612]
further decrease of INa amplitude ([1]; 10^−7M, embryonic chick heart cells): no further decrease
decrease of INa amplitude ([1]; 10^−8M, embryonic chick heart cells): 15%
effect on fast Na+ current ([1]; 10^−9M, embryonic chick heart cells): had no effect
sustained increase of [Ca]i (R-type Ca^2+ channel): blockade
oedema by bradykinin plus PAF (rat paw oedema; 10 nmol/paw): did not interfere
oedema by low dose bradykinin plus PGE2 (rat paw oedema; 10 nmol/paw): significantly inhibited
oedema by low dose bradykinin plus calcitonin gene related peptide (rat paw oedema; 10 nmol/paw): significantly inhibited
oedema by low dose bradykinin plus prostacyclin (rat paw oedema; 10 nmol/paw): significantly inhibited
PAF-mediated paw oedema (rat paw oedema; 10 and 100 nmol/paw): only a minimal inhibition
PGE2-induced paw oedema (rat paw oedema; 10 and 100 nmol/paw): dose-dependently inhibited
bradykinin-induced paw oedema (rat paw oedema; 10 and 100 nmol/paw): significantly inhibited
carrageenan-induced paw oedema (rat paw oedema; 10 and 100 nmol/paw): dose-dependently inhibited
substance P-mediated paw oedema (rat paw oedema; 10 and 100 nmol/paw): only a minimal inhibition
tyr^8-bradykinin-induced paw oedema (rat paw oedema; 10 and 100 nmol/paw): significantly inhibited
des-Arg^9-bradykinin-induced paw oedema (rat paw oedema): no significant effect
bradykinin-induced oedema in animals treated with cyprohetadine or compound 48/80 (rat paw oedema; intraperitoneal injection (FIG. 44)): dose-related inhibition was still observed
duration of inhibition of bradykinin oedema (rat paw oedema; subplantar): at least 2 h
onset of inhibition of bradykinin oedema (rat paw oedema; subplantar): 30 min
bradykinin oedema in controlateral paw treated with saline (rat paw oedema; systemic effect of subplantar injection): significant anti-oedemagenic action
histamine-induced paw oedema (mouse paw oedema; 7.5 and 15, i.p.): no significant effect
serotonin-induced paw oedema (mouse paw oedema; 7.5 and 15, i.p.): no significant effect
bradykinin-induced paw oedema (mouse paw oedema; 7.5 and 15, i.p., 30 min prior): dose-dependent inhibition
cellulose sulphate-induced paw oedema (mouse paw oedema; 7.5 and 15, i.p., 30 min prior): dose-dependent inhibition
PAF-acether-induced oedema (mouse paw oedema; 40 to 160 nmol/paw): failed to affect significantly
serotonin-induced oedema (mouse paw oedema; 40 to 160 nmol/paw): failed to affect significantly
bradykinin-induced paw oedema (mouse paw oedema; [3]): inhibited
carrageenan-induced paw oedema (mouse paw oedema; [3]): inhibited
